# Source: PubChem BioAssay AID588632 (Broad Institute, 2011)
# Results filed as inconclusive are left out. The source made the active and inactive calls.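 How the source made its calls: active means compounds lowering signal with fitted half-maximal concentration within ten times the top tested dose in every test run; inconclusive means test runs disagree, or a run had a weak flat or poor fit; inactive means every test run inactive.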
# Target: Serine/threonine-protein kinase 33 (Homo sapiens) (UniProt Q9BYT3)
# Sequence (Q9BYT3 whole entry, looked up): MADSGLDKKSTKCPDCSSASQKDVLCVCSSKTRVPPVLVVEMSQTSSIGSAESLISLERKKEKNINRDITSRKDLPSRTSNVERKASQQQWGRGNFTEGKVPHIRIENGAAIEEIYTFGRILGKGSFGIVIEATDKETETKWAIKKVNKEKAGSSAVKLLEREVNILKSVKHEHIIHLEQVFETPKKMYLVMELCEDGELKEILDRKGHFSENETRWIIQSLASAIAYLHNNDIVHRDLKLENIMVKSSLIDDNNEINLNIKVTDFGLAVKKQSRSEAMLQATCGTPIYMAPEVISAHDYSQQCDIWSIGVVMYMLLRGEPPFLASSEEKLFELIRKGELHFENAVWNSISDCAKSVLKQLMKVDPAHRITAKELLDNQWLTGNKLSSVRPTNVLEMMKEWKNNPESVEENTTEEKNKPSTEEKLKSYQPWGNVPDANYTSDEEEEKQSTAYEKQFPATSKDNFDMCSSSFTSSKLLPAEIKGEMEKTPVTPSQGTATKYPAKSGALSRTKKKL
# Assay: inhibition of purified STK33 phosphorylating MBP – biochemical, ADP-Glo luminescence, dry powder, dose response (AID 588632)
# Conditions: purified STK33, MBP phosphorylation; for activity change, negative = inhibition: at 10 µM (top of the series)
SMILES,AC50 [nM],"activity change, negative = inhibition"
CN1CCN(c2ccc(Nc3ncc4c(n3)N(C)c3ccccc3C(=O)N4C)cc2)CC1,1130,
CCC(CO)Oc1cc(NC(=O)c2ccc(Cl)cc2)c2ncn(C(C)C)c2c1 (stereo not drawn),,inactive
COc1cc(N2CCN(C)CC2)ccc1Nc1ncc2c(n1)N(C1CCCC1)C(C)CC(=O)N2C (stereo not drawn),910,
Cc1ncc(/C=C2\C(=O)Nc3ccccc32)[nH]1,795,
CC(C)n1cnc2c(NCc3ccccc3)cc(OCCCN3CCOCC3)cc21,,inactive
CCC(CO)Oc1cc(NC(=O)c2ccccc2C)c2ncn(C(C)C)c2c1 (stereo not drawn),,inactive
O=C1NC(=NCc2ccccc2)S/C1=C/c1ccc(O)cc1,522,
COc1cc(N2CCC(N3CCN(C)CC3)CC2)ccc1Nc1ncc2c(n1)N(C1CCCC1)C(C)CC(=O)N2C (stereo not drawn),2200,
COc1cc(N2CCN(C)CC2)ccc1Nc1ncc2c(n1)N1CCC[C@H]1CC(=O)N2C,409,
COc1cc(C(=O)NC2CCN(C)CC2)ccc1Nc1ncc2c(n1)N(C1CCC(O)CC1)CCC(=O)N2C (stereo not drawn),1180,
Nc1nc(-c2cc(O)ccc2[N+](=O)[O-])cc(-c2ccccc2)c1[N+](=O)[O-],151,
COc1cc(N2CCC(N3CCN(C)CC3)CC2)ccc1Nc1ncc2c(n1)N1CCC[C@H]1CC(=O)N2C,1880,
COc1cc(/C=C2\SC(N)=NC2=O)ccc1O,574,
O=C(Nc1ccccc1-c1nc2ccccc2[nH]c1=O)c1cccs1,331,
O=C1NCCCc2c1oc1ccc(O)cc21,939,
CCC(CO)Oc1cc(NC(=O)c2cccc(N)c2)c2ncn(C(C)C)c2c1 (stereo not drawn),,inactive
COc1cc(N2CCC(O)CC2)ccc1Nc1ncc2c(n1)N1CCc3cccc(c31)C(=O)N2C,509,
CCC(CO)Oc1cc(NCc2ccccc2)c2ncn(C(C)C)c2c1 (stereo not drawn),,inactive
CCC(CO)Oc1cc(NC(=O)c2ccccc2Cl)c2ncn(C(C)C)c2c1 (stereo not drawn),,inactive
COc1cc(C(=O)N2CCC(N3CCN(C)CC3)CC2)ccc1Nc1ncc2c(n1)N(C)c1ccccc1C(=O)N2C,6450,
CCC(CO)Oc1cc(NC(=O)c2ccccc2OC)c2ncn(C(C)C)c2c1 (stereo not drawn),,inactive
COCCCOc1cc(NCc2ccccc2)c2ncn(C(C)C)c2c1,,inactive
CCC(CO)Oc1cc(NC(=O)c2ccccc2)c2ncn(C(C)C)c2c1 (stereo not drawn),,inactive
CCC(CO)Oc1cc(NC(=O)c2ccc(N)cc2)c2ncn(C(C)C)c2c1 (stereo not drawn),,inactive

SMILES,AC50 [nM],"activity change, negative = inhibition"
CC(=O)N(C)c1ccc(N=Cc2c(O)ccc3ccccc23)cc1,1130,
COc1cc(N2CCN(C)CC2)ccc1Nc1ncc2c(n1)N(C)c1sccc1C(=O)N2C,1560,
CCC(CO)Oc1cc(NC(=O)c2cccc([N+](=O)[O-])c2)c2ncn(C(C)C)c2c1 (stereo not drawn),,inactive
CCCn1c(NC(=O)c2cccc(S(=O)(=O)N3CCCC3)c2)nc2ccccc21,122,
COc1cc(/C=N/n2c(-c3ccccc3)n[nH]c2=S)ccc1O,695,
CCC(CO)Oc1cc(NC(=O)c2ccc(OC)cc2)c2ncn(C(C)C)c2c1 (stereo not drawn),,inactive
CCC(CO)Oc1cc(NCc2ccccc2)c2ncn(C3CCCC3)c2c1 (stereo not drawn),,inactive
COC(=O)c1ccc(COc2ccccc2/C=C/C(=O)c2ccc(OCC(=O)O)cc2)cc1,400,
Oc1ccc(Nc2nc(-c3ccccc3O)nc3ccccc23)cc1,811,
CCC(CO)Oc1cc(NC(=O)c2cccc(Cl)c2)c2ncn(C(C)C)c2c1 (stereo not drawn),,inactive
COc1cc(N2CCN(C)CC2)ccc1Nc1ncc2c(n1)N(C)c1ccccc1C(=O)N2C,1600,
CCOc1ccccc1C(=O)Nc1cc(Cl)ccc1O,1250,
COc1cc(/C=C2\SC(=Nc3ccccc3OC)NC2=O)ccc1O,314,
CCC(CO)Oc1cc(NC(=O)c2ccccc2N)c2ncn(C(C)C)c2c1 (stereo not drawn),,inactive
CCC(CO)Oc1cc(NC(=O)c2ccc([N+](=O)[O-])cc2)c2ncn(C(C)C)c2c1 (stereo not drawn),,inactive
CCC(CO)Oc1cc(NC(=O)c2cccc(OC)c2)c2ncn(C(C)C)c2c1 (stereo not drawn),,inactive
CCC(CO)Oc1cc(NC(=O)c2cccc(C)c2)c2ncn(C(C)C)c2c1 (stereo not drawn),,inactive
CC(Oc1ccc2c(c1)c1ccnc3c4ccccc4c(=O)n2c13)C(=O)NCCN1CCOCC1 (stereo not drawn),168,
O=C(Nc1ccccc1-c1ccccc1)c1ccc(Br)o1,1580,
CCC(CO)Oc1cc(NC(=O)c2ccc(F)cc2)c2ncn(C(C)C)c2c1 (stereo not drawn),,inactive
COc1cc(NCc2ccccc2)c2ncn(C(C)C)c2c1,,inactive
CCC(CO)Oc1cc(NC(=O)c2ccc(C)cc2)c2ncn(C(C)C)c2c1 (stereo not drawn),,inactive
CCC(CO)Oc1cc(NC(=O)c2cccc(F)c2)c2ncn(C(C)C)c2c1 (stereo not drawn),,inactive
CC(C)n1cnc2c(Nc3cccc(Cl)c3)nc(NCCO)nc21,632,
